Test results: US20230210831A1, “CHRONIC KIDNEY DISEASE TREATMENT OR PREVENTION METHOD” (Japan Tobacco Inc., priority 2019, published 2023)

What was measured:
human SGLT1 = target: T1, human SGLT1 (Homo sapiens, UniProt P13866); assay: Assessment of SGLT1 inhibitory activity (14C-AMG uptake in human SGLT1-stably-expressing CHO-K1 cells); format: cell-based
T1 construct: expressed in transfected cells; PCR template pCMV6-hSGLT1 (OriGene)
T1 sequence (P13866 1-664): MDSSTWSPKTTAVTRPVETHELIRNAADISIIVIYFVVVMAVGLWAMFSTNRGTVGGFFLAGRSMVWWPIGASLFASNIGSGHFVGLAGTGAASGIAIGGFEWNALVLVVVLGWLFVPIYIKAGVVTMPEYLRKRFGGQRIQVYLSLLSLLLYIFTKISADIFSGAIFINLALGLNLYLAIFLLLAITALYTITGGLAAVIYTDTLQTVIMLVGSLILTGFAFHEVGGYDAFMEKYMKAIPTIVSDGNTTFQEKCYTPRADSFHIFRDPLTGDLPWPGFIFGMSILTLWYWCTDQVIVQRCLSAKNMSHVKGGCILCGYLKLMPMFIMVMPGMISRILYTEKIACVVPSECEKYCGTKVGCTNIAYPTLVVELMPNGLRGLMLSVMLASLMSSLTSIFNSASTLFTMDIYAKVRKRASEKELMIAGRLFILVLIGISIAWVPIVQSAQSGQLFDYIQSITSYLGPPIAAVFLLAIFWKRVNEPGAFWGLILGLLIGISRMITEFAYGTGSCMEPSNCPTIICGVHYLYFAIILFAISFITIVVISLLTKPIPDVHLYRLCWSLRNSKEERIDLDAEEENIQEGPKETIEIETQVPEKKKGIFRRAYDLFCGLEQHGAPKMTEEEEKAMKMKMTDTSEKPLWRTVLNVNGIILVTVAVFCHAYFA
Experimental: SGLT1 inhibitory activities of test compounds (IC50 values) were calculated based on the amount of intracellular uptake of labelled α-methyl-D-glucopyranoside (^14C-AMG) transported by SGLT1.
A DNA fragment containing human SGLT1 was amplified by PCR (Polymerase Chain Reaction) using pCMV6-hSGLT1 (OriGene) as a template. In the human SGLT1, NheI recognition and cleavage sequence was added to the upstream of Kozac consensus sequence derived from a vector, and a stop codon, TAG, and SalI recognition and cleavage sequence were added to the immediate downstream of the protein-translating region of human SGLT1. […]
Human SGLT1-stably-expressing cell lines were seeded at 5 x 10^4 cells/well on BioCoat™ Poly-D-Lysine 96 well plate with Lid (Becton, Dickinson and Company) and cultured at 37° C. under 5% CO2 overnight. […] In the assessment for the uptake ability of 14C-AMG, the total amount of the cell lysate was transferred to OptiPlate 96 (Perkin-Elmer) with 100 µL/well of MicroScint-40 (Perkin-Elmer) dispensed and ^14 C of CPM was measured with TOPCOUNT NXT (Perkin-Elmer).
Data was calculated by deducting the average value of CPM for blank well from the average value of CPM for each well treated. An inhibition rate for each test compound in each concentration was calculated from the following equation: […]

glucose-loaded SD rats [1] = assay: OGTT (oral glucose tolerance test), Test Example 2; format: in vivo, rat; details: 1, 3, or 10 mg/kg orally 16 hours before glucose load; male SD rats; compared to vehicle
Experimental: Vehicle (0.5% methylcellulose solution) or Compound 1 (1, 3, or 10 mg/kg) suspended in a 0.5% methylcellulose solution was orally administered in 5 mL/kg to an about 4-hour-fasted male SD rat (8-week old, Nihon Charles River K.K., 6 cases for each group).
Statistical analyses were based on Steel’s multiple test. The significance level was two-sided 5%.

glucose-loaded SD rats [2] = assay: OGTT (oral glucose tolerance test), Test Example 3; format: in vivo, rat; details: 3 mg/kg orally 16 hours before glucose load; male SD rats; compared to vehicle
Experimental: Vehicle (0.5% methylcellulose solution), or Compound 1, Compound A, or Compound B (3 mg/kg each) suspended in a 0.5% methylcellulose solution was orally administered in 5 mL/kg to an about 4-hour-fasted male SD rat (8-week old, Nihon Charles River K.K., 5 cases for each group).
Statistical analyses were based on Dunnett’s multiple group test. The significance level was two-sided 5%.

SDT fatty rats = assay: Assessment of renal protective effect (GFR in SDT fatty rats); format: in vivo, rat; details: 2 mg/kg orally once a day, 16 weeks; male SDT fatty rats
Experimental: Vehicle (0.5% methyl cellulose solution), Compound 1 (2 mg/kg), or dapagliflozin (0.3 mg/kg) was orally administered once a day to male SDT fatty rats (7-week old, CLEA Japan, Inc.); and as a normal control, vehicle was orally administered once a day to male SD rats (7-week old, CLEA Japan, Inc.). 16 Weeks after the administration, GFR (mL/min/100 g B.W.) was measured with a transdermal GFR monitor (MediBeacon). For statistical analysis, Student’s test was conducted between the vehicle-administered group of SD rats and the vehicle-administered group of SDT fatty rats. Dunnett’s multiple test was conducted for the Compound 1 and dapagliflozin groups to the vehicle group of SDT fatty rats. The significance level was two-sided 5%.

⅚-kidney-removed rats = assay: Assessment of renal protective effect 2 (⅚-kidney-removed rats); format: in vivo, rat; details: 2 mg/kg/day mixed with feed, vs vehicle-administered group
Experimental: 7-Week old male Wistar rats (Japan SLC, Inc.) were treated by removing ⅔ of the left kidney under isoflurane anesthesia and then removing the whole right kidney one week later to prepare ⅚-kidney-removed rats. Compound 1 (2 mg/kg/day) mixed with feed was orally administered to the rats from the age of 9 weeks. As a normal control, male Wistar rats at the same age were set as a sham group. […] For statistical analysis, Student’s test was conducted between the vehicle-administered group and the Compound 1-administered group. […] For statistical analysis, Student’s test or Aspin-Welch was conducted.

C[C@H]1C(=O)NC[C@@H]1C(=O)Nc1cc(-c2cc(F)cc(OC(C)(C)C)c2)n(C(F)(F)F)n1 [Compound 1, (3R,4R)-N-(5-(3-(tert-butoxy)-5-fluorophenyl)-1-(trifluoromethyl)-1H-pyrazol-3-yl)-4-methyl-5-oxopyrrolidine-3-carboxamide]
SGLT1 inhibitory activity (human SGLT1): confirmed to have the SGLT1 inhibitory activity | blood glucose level after the glucose load (Δ AUC to 120 minutes, % of Vehicle) (glucose-loaded SD rats [1]): significantly reduced | blood glucose level after the glucose load (Δ AUC to 120 minutes, % of Vehicle) (glucose-loaded SD rats [2]): significantly reduced | GFR (SDT fatty rats): inhibited the increase of GFR | protein quantity in the urine (⅚-kidney-removed rats): lower than those of the vehicle-administered group | urea nitrogen level (⅚-kidney-removed rats): significantly lower than those of the vehicle-administered group
